PubChem BioAssay AID179 (DTP/NCI, 2004)
Values joined by “and” are separate entries in the source; they are usually repeats but may differ in a detail not shown here. Equal entries are not always repeated. Active and inactive are the calls of the source.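 How the source made its calls: active means compounds giving half or more protection of infected cells from virus-caused growth loss, again on retest; inactive means the rest.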

System: CEM cells HIV-1 protection, formazan growth assay
Assay: NCI AIDS Antiviral Assay
Conditions: for IC50: measured here: growth of uninfected CEM cells
Summary of the method: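 Screen of anti-HIV-1 activity in human CEM cells using a formazan-based growth measurement at five drug concentrations. Hits with 50% or greater protection were repeated, and confirmation required reproducible complete protection.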

Compound | EC50 [µM] | IC50 | outcome
COC1(OC)CC(CO)(COc2cc(Cl)nc(N)n2)C1 | > 200 | > 200 µM | –
Cc1ccc[n+](N)c1N | > 1000 | > 1000 µM | –
O=c1n(N=S(=O)(c2ccccc2)c2ccccc2)c(=O)n2n1C1C=CC2CC1 | > 200 | > 200 µM | –
COC(=O)c1cc(C(=CCCN=[N+]=[N-])c2cc(Br)c(OC)c(C(=O)OC)c2)cc(Br)c1OC | 3.24 | 93.3 µM | –
O=C1NC(=O)C(=Cc2ccc(Cl)cc2)C(=O)N1 | > 75.9 | > 75.9 µM | inactive
COc1ccc(/C=N/Nc2nnc3c4ccccc4n(C)c3n2)cc1 | > 200 | > 200 µM | –
CSc1c(C(=O)Nc2ccc(Cl)cc2)c(N)[nH]c(=O)c1C#N | > 200 | 1.2 µM | –
CC(C)C(/C=C/c1ccc(Cl)c(Cl)c1)=N\NC(=O)N/N=C(/C=C/c1ccc(Cl)c(Cl)c1)C(C)C | > 200 | > 200 µM | –
OC1(c2ccc(-c3ccccc3)cc2)c2ccccc2C2=NCCN21 (centres undefined) | > 200 | > 100 µM | –
CC(C)c1ccc2nc3ccc(C(=O)NCCN4CCN(c5ccccc5)CC4)cn3c(=O)c2c1 | > 200 | 14.8 µM | –
CC1(C)C=C(/C=N/Nc2ccc(Br)cc2)C(C#N)=C(O)C1(C#N)C#N | > 200 | 28.8 µM | –
CCCCCCCCCC1CC(=O)OC2=C1C(=O)CCC2 (centres undefined) | > 46.8 | > 46.8 µM | –
C/C=C/[C@@]1(OC(=O)c2ccccc2)C[C@@H]2CCCC[C@@H]21 | – | – | inactive
CCc1ccc(/C=C/C(=O)C2CN(CC)CCC2(O)/C=C/c2ccc(CC)cc2)cc1 (centres undefined) | > 200 | 4.37 µM | –
CCNC(=O)Cc1nc2c(=O)[nH]cnc2n1C1OC(CO)C(O)C1O (centres undefined) | > 200 | > 200 µM | –
N#CCC(=O)N/N=C\C(O)C(O)C(O)C(O)CO (centres undefined) | – | – | inactive
COc1ccc(COC(=O)NCC(=O)NC(C)C(=O)NC(Cc2ccccc2)C(=O)OCc2ccccc2)cc1 (centres undefined) | > 200 | 45.7 µM and 12.9 µM | –
CCC1C[N+]23CCc4c([nH]c5ccccc45)C2CC1CC3 (centres undefined) | > 57.5 | > 57.5 µM | –
O=C(OC(=C(c1ccccc1)c1ccccc1)N1CCCC1=S)C(c1ccccc1)c1ccccc1 | > 200 | > 200 µM | –
O=c1[nH]nc(Cc2ccccc2)n1C1CCCC1 | > 200 | > 200 µM | –
Cc1noc2cccc(OCc3ccccc3)c12 | > 30.2 | > 30.2 µM | –
C/C(O)=C(\N=O)C(=O)Nc1ccc(Cl)cc1Cl | > 339 | 145 µM | –

Compound | EC50 [µM] | IC50 | outcome
CC(=O)/C(N=Nc1ccc(-n2c(C)nc3ccccc3c2=O)cc1)=C(/C)O | > 200 | > 200 µM | –
Cc1[cH-]c(=O)n(-c2ccccc2)n1.[Au+].[Au].c1ccc([PH+](c2ccccc2)c2ccccc2)cc1.c1ccc([PH+](c2ccccc2)c2ccccc2)cc1 | > 3.47 | > 3.47 µM | –
NC(=O)c1cn(Cc2ccccc2)c(=O)n1Cc1ccccc1 | > 117 | > 117 µM | –
Cn1c2c(c3ccccc31)CCN(CCCCN1CCN(c3cccc(Cl)c3)CC1)C2=O | > 11 | > 11 µM | –
Cc1nc(C)c(N2CCN(C(=O)O)CC2)c(=O)[nH]1 | > 200 | > 200 µM | –
CC(C)(C)[Si](C)(C)OCC1OC(n2ccc(=O)[nH]c2=O)C(O[Si](C)(C)C(C)(C)C)C1CCN(O)CC1OC(n2ccc(=O)[nH]c2=O)C(O[Si](C)(C)C(C)(C)C)C1O[Si](C)(C)C(C)(C)C (centres undefined) | > 100 | > 100 µM | –
CCOC(=O)Cn1c(=O)c2nc(SC)sc2n(CC)c1=S | – | – | inactive
N#C/C(=C/c1ccc(Cl)cc1)c1ccc(Cl)cc1 | > 200 | 195 µM | –
CC(=NNC(=S)Nc1ccc(C)cc1)c1cccc(C(C)=NNC(=S)Nc2ccc(C)cc2)n1 | > 200 | 15.1 µM | –
CCOC(=O)C(=O)Nc1ccc(C)cc1C | > 1120 | 646 µM | –
C/C(=N\N=C(N)N)C(CN1CCOCC1)C(c1ccccc1)c1c(O)c2ccccc2oc1=O (centres undefined) | > 52.5 | > 52.5 µM | –
CCc1nc(N)nc(N)c1-c1ccc(Cl)cc1 | > 1 | 0.0372 µM | –
O=[N+]([O-])c1cc(Cl)ccc1S(=O)(=O)c1cc(Cl)cc2c1NCCC2 | > 200 | 32.4 µM | –
COc1ccc(C2S/C(=C\c3ccccc3O)C(=O)N2NC(=O)Cc2ccccc2)cc1 (centres undefined) | > 57.5 | > 57.5 µM | –
CC(=O)Oc1c(OC(C)C)c(C)c(O[Si](C(C)C)(C(C)C)C(C)C)c2[nH]c3ccccc3c12 | > 100 | 13.5 µM | –
CCN1C[C@]2(COC)CCC(OC)C34[C@@H]5C[C@@H]6C(O)[C@@H]5[C@](O)(C[C@@H]6OC)[C@@H](C[C@@H]32)[C@H]14 (some centres undefined) | – | – | inactive
NC(=O)c1ccc(S(=O)(=NS(=O)(=O)c2ccccc2)c2ccc(C(N)=O)cc2)cc1 | > 295 | > 295 µM | –
S=C(N/N=C\C(=N/NC(=S)N1CCCCC1)c1ccccc1)N1CCCCC1 | > 200 | 3.8 µM | –
O=S1Cc2ccccc2CS1 (centres undefined) | – | – | inactive
CC(=O)Nc1ncc(Sc2ccc([N+](=O)[O-])cc2)s1 | > 200 | > 200 µM | –
N/C(=N\C(O)C(Cl)(Cl)Cl)SCNC(=O)NCS/C(N)=N/C(O)C(Cl)(Cl)Cl (centres undefined) | > 158 | 126 µM | –
Cc1nc2c(=O)n(-c3ccccc3)c3ccccc3c2o1 | > 200 | 145 µM | –
